# Values quoted from earlier work in US20010031278A1, “Sustained release oxycodone formulations with no fed/fast effect” (priority 1996, published 2001).
# Details: gastric fluid (pH about 1) vs intestinal fluid (pH about 7.5)
smiles,measurement,value
COc1ccc2c3c1O[C@H]1C(=O)CC[C@@]4(O)[C@@H](C2)N(C)CC[C@]314.Cl [Oxycodone hydrochloride],solubility at low vs high pH,more soluble in gastric fluid (pH about 1) than in intestinal fluid (pH about 7.5)
